From ChEMBL document CHEMBL4038345, “Design, Synthesis, and Biological Evaluation of Novel Selenium-Containing Isocombretastatins and Phenstatins as Antitumor Agents” (J Med Chem, 2017)
pIC50: −log10 of the molar value. The source made the active and inactive calls. No cut-off for these calls is given here.

Experiments:
A549 [1] = experiment: Induction of apoptosis in human A549 cells assessed as live cells at 5 nM for 24 hrs by annexin V-FITC/propidium iodide staining-based flow cytometry analysis (reference value: 99.15%); type: functional
[2] = Antiproliferative activity against human HepG2/DOX cells after 48 hrs by MTT assay; type: functional, cell-based
A549 [3] = experiment: Induction of apoptosis in human A549 cells assessed as late apoptotic cells at 1 nM for 24 hrs by annexin V-FITC/propidium iodide staining-based flow cytometry analysis; type: functional
A549 [4] = experiment: Induction of apoptosis in human A549 cells assessed as early apoptotic cells at 5 nM for 24 hrs by annexin V-FITC/propidium iodide staining-based flow cytometry analysis (reference value: 0.82%); type: functional
A549 [5] = experiment: Induction of apoptosis in human A549 cells assessed as live cells at 1 nM for 48 hrs by annexin V-FITC/propidium iodide staining-based flow cytometry analysis (reference value: 99.01%); type: functional
A549 [6] = experiment: Induction of apoptosis in human A549 cells assessed as necrotic cells at 5 nM for 48 hrs by annexin V-FITC/propidium iodide staining-based flow cytometry analysis (reference value: 0.02%); type: functional
A549 [7] = experiment: Induction of apoptosis in human A549 cells assessed as live cells at 10 nM for 48 hrs by annexin V-FITC/propidium iodide staining-based flow cytometry analysis (reference value: 99.01%); type: functional
A549 [8] = experiment: Induction of apoptosis in human A549 cells assessed as late apoptotic cells at 10 nM for 48 hrs by annexin V-FITC/propidium iodide staining-based flow cytometry analysis; type: functional
[9] = Metabolic stability in Sprague-Dawley rat liver microsomes assessed as compound remaining after 30 mins in presence of NADPH by UV-based HPLC-MS/MS analysis; type: ADME, microsome; details: read-out: Stability
[10] = Metabolic stability in Sprague-Dawley rat liver microsomes assessed as compound remaining after 90 mins in presence of NADPH by UV-based HPLC-MS/MS analysis; type: ADME, microsome; details: read-out: Stability
[11] = Metabolic stability in Sprague-Dawley rat liver microsomes assessed as compound remaining after 150 mins in presence of NADPH by UV-based HPLC-MS/MS analysis; type: ADME, microsome; details: Sprague-Dawley, liver microsomes, read-out: Stability
A549 [12] = experiment: Disruption of mitochondrial membrane potential in human A549 cells assessed as intact mitochondrial membrane at 1 nM after 24 hrs by JC1 staining-based flow cytometry method (reference value: 99.18%); type: functional
A549 [13] = experiment: Disruption of mitochondrial membrane potential in human A549 cells at 1 nM after 24 hrs by JC1 staining-based flow cytometry method (reference value: 0.62%); type: functional
A549 [14] = experiment: Disruption of mitochondrial membrane potential in human A549 cells at 1 to 10 nM after 24 hrs by JC1/Hoechst 33342 staining-based fluorescence microscopic method; type: functional, cell-based
A549 [15] = experiment: Induction of apoptosis in human A549 cells assessed as downregulation of Bcl2 expression at 1 to 10 nM after 24 to 48 hrs by Western blot analysis; type: functional, cell-based
A549 [16] = experiment: Induction of apoptosis in human A549 cells assessed as downregulation of Bcl-xl expression at 1 to 10 nM after 24 to 48 hrs by Western blot analysis; type: functional, cell-based
A549 [17] = experiment: Induction of apoptosis in human A549 cells assessed as upregulation of Bad expression at 1 to 10 nM after 24 to 48 hrs by Western blot analysis; type: functional, cell-based
A549 [18] = experiment: Cell cycle arrest in human A549 cells assessed as increase in accumulation of cells at G2/M phase at 1 nM after 24 hrs by propidium iodide staining-based flow cytometry method; type: functional
A549 [19] = experiment: cells; details: Homo sapiens, A549, 48 h

In the case of `C=C(c1ccc(OC)c(O)c1)c1cc(OC)c(OC)c([Se]C)c1`, the Activity (A549 [1]) was 64.43%, the pIC50 [2] was 7.69 and the Activity (A549 [3]) was 0.01%. It also gave an Activity (A549 [4]) of 31.36%, an Activity (A549 [5]) of 80.49% and an Activity (A549 [6]) of 10.45%. The Activity (A549 [7]) was 23.45%, the Activity (A549 [8]) was 20.44% and the remaining at 0.5 h [9] was 81.1%. For the same molecule, the remaining at 1.5 h [10] was 44.1%, the remaining at 2.5 h [11] was 25.8% and the Activity (A549 [12]) was 86.88%. The Activity (A549 [13]) was 12.78%, the Activity (A549 [14]) was “Active” and the Activity (A549 [15]) was “Active”. The Activity (A549 [16]) was “Active”, the Activity (A549 [17]) was “Active” and the Activity (A549 [18]) was 50%. The pIC50 (A549 [19]) was 8.41.
